From PubChem BioAssay (NCI) come the findings set out here.

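Results reflect a 48-hour exposure of cells in 96-well plates to compound at five concentrations. GI50 is the concentration that inhibits growth by half. TGI denotes the concentration required for complete inhibition of growth.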

Among the test systems are 786-0 renal; RXF 393 renal; EKVX NSCLC; CAKI-1 renal; SF-539 CNS; SNB-75 CNS; IGROV1 ovarian; SF-268 CNS; BT-549 breast; MDA-MB-231 breast.
What all share (assay): DTP human tumour cell line panel, 48 h

`N#CC(C#N)=CSc1ccccc1`: the TGI with 786-0 renal is 34.5 µM; in the assay with RXF 393 renal it was 45.2 µM; with EKVX NSCLC, > 100 µM; in the assay with CAKI-1 renal, 74.1 µM; with SF-539 CNS, 42.3 µM; in the assay with SNB-75 CNS, 74.8 µM. Besides, the results for the TGI with IGROV1 ovarian and in the assay on SF-268 CNS were 35.7 µM and 54.1 µM, respectively.
Consider `O=C(O)CCC1(Br)CCCCC(Br)C1=O` (stereo not given), for which the TGI in the assay on 786-0 renal, in the assay on RXF 393 renal, with EKVX NSCLC, in the assay with CAKI-1 renal, in the assay on SF-539 CNS and in the assay on SNB-75 CNS was > 100 µM throughout. Further, the TGI in the assay with IGROV1 ovarian and in the assay on SF-268 CNS was > 100 µM each time.
With `COc1cc(C2CC(c3cc(C)ccc3C)=NN2c2ccc(S(=O)(=O)NC(=O)NCc3ccccc3)cc2)cc(OC)c1OC` (stereo not given), the GI50 with BT-549 breast was 3.08 µM; with MDA-MB-231 breast, 2.96 µM; with 786-0 renal it was 3.79 µM; in the assay on RXF 393 renal, 2.9 µM; in the assay on CAKI-1 renal, 3.17 µM; in the assay on SF-539 CNS, 2.02 µM. The GI50 in the assay with SNB-75 CNS is 2.33 µM; with IGROV1 ovarian it was 3.95 µM; in the assay on SF-268 CNS, 4.9 µM. The TGI in the assay on BT-549 breast was 12.6 µM; with MDA-MB-231 breast, 13.3 µM; with 786-0 renal it was 23.5 µM; with RXF 393 renal, 8.17 µM; with CAKI-1 renal, 19.9 µM; in the assay on SF-539 CNS, 4.69 µM. The TGI is 9.32 µM with SNB-75 CNS, 19.8 µM in the assay on IGROV1 ovarian and 34.8 µM in the assay on SF-268 CNS.
Consider `COc1ccc(/C=C/c2cc(N3CCOCC3)c3cc(F)c(F)cc3n2)cc1OC`, for which the GI50 is 0.777 µM in the assay with BT-549 breast; 0.483 µM in the assay on MDA-MB-231 breast; 0.6 µM in the assay with 786-0 renal; 1.36 µM with RXF 393 renal; 0.394 µM with CAKI-1 renal; 0.913 µM with SF-539 CNS. For the same compound, the GI50 in the assay with SNB-75 CNS was 1.06 µM; in the assay with IGROV1 ovarian it was 0.968 µM; in the assay with SF-268 CNS, 0.775 µM. Also, the TGI with BT-549 breast amounted to 5.46 µM; in the assay on MDA-MB-231 breast, 4.66 µM; in the assay on 786-0 renal it was 3.8 µM; in the assay on RXF 393 renal it was 10.8 µM; with CAKI-1 renal it was 3.24 µM; with SF-539 CNS, 4.29 µM. In addition, the values for the concentration for total growth inhibition (TGI) with SNB-75 CNS, in the assay on IGROV1 ovarian and in the assay with SF-268 CNS were 6.63 µM, 9.67 µM and 16.5 µM, respectively.
In the case of `O=S1(=O)CS(=O)(=O)OCCCO1`, the TGI in the assay with MDA-MB-231 breast, in the assay with 786-0 renal, in the assay with RXF 393 renal, in the assay on EKVX NSCLC, in the assay with CAKI-1 renal and in the assay on SF-539 CNS was > 100 µM each time. Moreover, the TGI in the assay with SNB-75 CNS, with IGROV1 ovarian and in the assay with SF-268 CNS was > 100 µM in each case.
As for `C=C1Oc2nc3ccccc3c(=O)n2C1(C)C`, the TGI in the assay on 786-0 renal, in the assay with EKVX NSCLC, in the assay on CAKI-1 renal, in the assay with SF-539 CNS, with IGROV1 ovarian and in the assay with SF-268 CNS was > 100 µM in each case.
As for `COc1cccc(NC(=O)CC(=O)N2NC(C)C(N=Nc3cccc(C(=O)O)c3)C2=O)c1` (stereo not given), the TGI in the assay with 786-0 renal, with EKVX NSCLC, with CAKI-1 renal, with SF-539 CNS, in the assay with SNB-75 CNS and with IGROV1 ovarian was > 100 µM in each case. In the assay with SF-268 CNS, the TGI is > 100 µM.
With `O=c1c2ccccc2c(=O)c2c1cc(Cl)c1[nH]c3c([nH]c12)c(Cl)cc1c(=O)c2ccccc2c(=O)c13`, the TGI in the assay on 786-0 renal, in the assay with RXF 393 renal, in the assay with EKVX NSCLC, in the assay on CAKI-1 renal, in the assay with SF-539 CNS and with SNB-75 CNS was > 100 µM each time. Besides, the TGI with IGROV1 ovarian and in the assay on SF-268 CNS was > 100 µM each time.
With `O=C(O)C1c2ccccc2C(C(=O)O)c2ccccc21` (stereo not given), the TGI in the assay with 786-0 renal, in the assay on RXF 393 renal, with CAKI-1 renal, in the assay with SF-539 CNS, in the assay with SNB-75 CNS and in the assay on IGROV1 ovarian was > 100 µM each time. Besides, the TGI with SF-268 CNS was > 100 µM.
Regarding `Cc1cc(C(=O)N2CCN(Cc3ccccc3)CC2)c(C)o1`, the TGI in the assay on 786-0 renal, in the assay on EKVX NSCLC, in the assay with CAKI-1 renal, with SF-539 CNS, in the assay with SNB-75 CNS and in the assay with IGROV1 ovarian was > 100 µM throughout. For the same compound, in the assay on SF-268 CNS, the TGI is > 100 µM.
Regarding `CCC[CH2][Sn]([CH2]CCC)([O]C(=O)c1nccnc1N)[O]C(=O)c1nccnc1N`, the GI50 is 0.652 µM in the assay on 786-0 renal; 0.187 µM in the assay with RXF 393 renal; 1.02 µM with EKVX NSCLC; 0.226 µM in the assay with CAKI-1 renal; 1.09 µM in the assay on SF-539 CNS; 0.87 µM in the assay on SNB-75 CNS. The GI50 was 1.33 µM in the assay on IGROV1 ovarian and 0.64 µM in the assay on SF-268 CNS. In addition, the TGI with 786-0 renal came out at 1.91 µM; with RXF 393 renal it was 1.31 µM; in the assay on EKVX NSCLC it was 2.18 µM; with CAKI-1 renal, 1.77 µM; in the assay on SF-539 CNS it was 2.3 µM; with SNB-75 CNS it was 2.12 µM. Besides, the TGI in the assay on IGROV1 ovarian came to 2.68 µM; with SF-268 CNS, 1.97 µM.
As for `O=C(O)C#CCO`, the TGI in the assay with 786-0 renal, in the assay on RXF 393 renal, with EKVX NSCLC, with CAKI-1 renal, with SF-539 CNS and in the assay with SNB-75 CNS was > 100 µM in each case. In addition, the TGI with IGROV1 ovarian and in the assay on SF-268 CNS was > 100 µM in each case.
Regarding `O=C(Nc1ccccc1Br)c1cccc([N+](=O)[O-])c1O`, the TGI with 786-0 renal is > 41 µM; in the assay on RXF 393 renal it was 6.71 µM; in the assay on EKVX NSCLC, 42.9 µM; in the assay on CAKI-1 renal, > 43.8 µM; in the assay with SF-539 CNS, 35 µM; in the assay on SNB-75 CNS, 53.1 µM. For the same compound, the TGI in the assay on IGROV1 ovarian is > 59.7 µM; in the assay on SF-268 CNS, > 100 µM.
For the compound `CC1(C)C(=S)C(C)(C)C1=S`, the TGI in the assay on MDA-MB-231 breast, with 786-0 renal, in the assay on EKVX NSCLC, with SF-539 CNS, with SNB-75 CNS and in the assay on IGROV1 ovarian was > 100 µM in each case. Also, in the assay with SF-268 CNS, the concentration for total growth inhibition (TGI) is > 100 µM.

By TGI is commonly meant the concentration at which net growth stops. Low readings indicate greater sensitivity of the cells, high ones lower sensitivity of the cells. As a reminder, the GI50 is the concentration that inhibits growth by half.
